Experimental data as given in US5998366A, “Method for ameliorating glutamic acid decarboxylase associated autoimmune disorders” (The Regents of the University of California, priority 1997, dated 1999).

B1: ^35 S-GAD65: 35S-labeled rat GAD65 produced in a bacterial expression system (protein, UniProt Q05683 1-585, looked up)
Glutamate decarboxylase 2: MASPGSGFWSFGSEDGSGDPENPGTARAWCQVAQKFTGGIGNKLCALLYGDSEKPAESGGSVTSRAATRKVACTCDQKPCSCPKGDVNYALLHATDLLPACEGERPTLAFLQDVMNILLQYVVKSFDRSTKVIDFHYPNELLQEYNWELADQPQNLEEILTHCQTTLKYAIKTGHPRYFNQLSTGLDMVGLAADWLTSTANTNMFTYEIAPVFVLLEYVTLKKMREIIGWPGGSGDGIFSPGGAISNMYAMLIARYKMFPEVKEKGMAAVPRLIAFTSEHSHFSLKKGAAALGIGTDSVILIKCDERGKMIPSDLERRILEVKQKGFVPFLVSATAGTTVYGAFDPLLAVADICKKYKIWMHVDAAWGGGLLMSRKHKWKLNGVERANSVTWNPHKMMGVPLQCSALLVREEGLMQSCNQMHASYLFQQDKHYDLSYDTGDKALQCGRHVDVFKLWLMWRAKGTTGFEAHIDKCLELAEYLYNIIKNREGYEMVFDGKPQHTNVCFWFVPPSLRVLEDNEERMSRLSKVAPVIKARMMEYGTTMVSYQPLGDKVNFFRMVISNPAATHQDIDFLIEEIERLGQDL
modifications: 35S label
notes: 35S-labeled rat GAD65 produced in a bacterial expression system

Key:
[1] = test system: IDDM associated autoantibodies; assay: ELISA of patient and control sera on plate-bound human GAD65 peptides; format: binding; conditions: none of the control sera
From the text: A set of peptides (20-23 amino acids in length, with 5 aa overlaps) that span the human GAD65 molecule were synthesized to determine whether sera from most individuals at risk, pre-IDDM and with IDDM (in contrast to healthy controls) do in fact produce antibodies that differentially recognize GAD65 linear epitopes distributed throughout the molecule.
Patient sera and most control sera were those used in a previous study (Kaufman, et al., J. Clin. Investigation, supra) All samples were coded and tested in a blind manner. Peptides were synthesized using an automatic instrument (Applied Biosystems, Foster City, Calif.) and standard conditions. Peptides were dissolved in 60 mM sodium bicarbonate buffer (pH 9.6) at 20 ug/ml and 100 ul of each was added to duplicated wells of a 96 well Nunc-Immuno Plate. Peptides were allowed to bind at 4° C. overnight. The plates were then washed three times with PBS+0.1% Tween 20 (wash buffer), after which the plates were pre-absorbed with 3% BSA in sodium bicarbonate buffer for 0.5 hours at 37° C., or at room temperature overnight. The plates were then washed 5 times with the above wash buffer. 100 ul of serum at a 1/300 dilution in PBS+0.1% Tween 20 and 1% BSA was added to each well and antibodies were allowed to bind for 1 hour at 37° C. […] The color development was measured at 410 nm using an ELISA plate reader (ICN, Biomedicals, Costa Mesa, Calif.). […]

[2] = test system: autoantibodies to GAD65; assay: Immunoprecipitation of 35S-GAD65 by sera drawn before IDDM onset; format: binding, human; conditions: sera drawn 3 to 66 months before IDDM onset
Method: 5. Islet Cell Extractions and Immunoprecipitations. Islet cells were extracted as previously described by Atkinson, et al. (Lancet, 335:1357-1360, 1990) with the following modifications. […] Following another incubation with protein A Sepharose CL-4B (1 h, 4° C.), the complexes were then washed 5 times with 50 mM Tris HCL (pH 7.4) with 0.1% SDS, 1.0% Triton X-114, and 2 mM EDTA, and then washed again one time in double distilled water. The protein A Sepharose CL-4B was then boiled in Laemmli sample buffer (Laemmli, Nature, 227:680-685, 1970), and the samples were subjected to SDS-PAGE and fluororadiography (Kodak, X-omat AR5) using Enhance (New England Nuclear). Alternatively, the autoradiographs were analyzed by a BETAGEN (Boston, Mass.) analyzer. Both 64 KA positive and negative sera were used in each assay, to serve as interassay controls. All fluororadiographs were analyzed and rated as positive or negative after comparison with the known interassay controls.
A similar rating procedure was employed for the intensity of bands corresponding to immunoprecipitated ^35 S-GAD65 and ^35 S-GAD67.
6. Immunoprecipitations. […]
8. […] After sonication, cell debris was removed by centrifugation and protein concentration was measured (Bradford, Anal.Biochem., 72:248, […]) in the supernatant (supernatant was stored in aliquots at -70° C.).

Molecule | share of patients recognizing the peptide [1] | specimens immunoreactive with the labeled protein [2]
KPCSCSKVDVNYAFLHATDL [Peptide 6] | 25-37% | 
B1 |  | 9 out of 12
